# Source: US12077503B2, “Substituted cyclic amides and their use as herbicides” (FMC CORPORATION, priority 2015, dated 2024)
# Legend:
# Assay type in all cases: in vivo
# [1] = tested on: barnyardgrass (Echinochloa crus-galli); assay: Test B flooded paddy test; settings: Echinochloa crus-galli, Flood, 250 g ai/ha; scale of 0 to 100 where 0 is no effect and 100 is complete control; read-out: Barnyardgrass plant response rating
# In short: (§1)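 Percent control, visually estimated after 13–15 d in the greenhouse on a 0–100 basis, compares treated pots with untreated ones; compound was put into paddy water 3 cm above the soil when plants had two leaves.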
# [2] = tested on: rice (Oryra sativa); assay: Test B flooded paddy test; settings: Oryza sativa, Flood, 250 g ai/ha; scale of 0 to 100 where 0 is no effect and 100 is complete control; read-out: Rice plant response rating
# In short: as §1
# [3] = tested on: sedge, umbrella (small-flower umbrella sedge, Cyperus difformis); assay: Test B flooded paddy test; settings: Cyperus difformis, Flood, 250 g ai/ha; scale of 0 to 100 where 0 is no effect and 100 is complete control; read-out: Sedge, Umbrella plant response rating
# In short: as §1
# [4] = tested on: ducksalad (Heteranthera limosa); assay: Test B flooded paddy test; settings: Heteranthera limosa, Flood, 250 g ai/ha; scale of 0 to 100 where 0 is no effect and 100 is complete control; read-out: Ducksalad plant response rating
# In short: as §1
# [5] = tested on: barnyardgrass (Echinochloa crus-galli); assay: Test A preemergence; settings: Echinochloa crus-galli, pre-emergence, 240 h; for pest or weed control at 125 g/ha: 125 g ai/ha, Preemergence, visual injury rating after approximately 10 d, read-out: Barnyardgrass plant response rating (0 to 100 scale, 0 is no effect, 100 is complete control); for pest or weed control at 500 g/ha: 500 g ai/ha, preemergence, visual injury rating about 10 d after treatment, 0 to 100 scale (0 no effect, 100 complete control), read-out: Barnyardgrass plant response rating
# In short: (§2)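 Ratings of 0 (no effect) to 100 (complete control) come from visual comparison with untreated controls roughly 10 d after treatment. Test chemicals, formulated in a non-phytotoxic solvent mixture with surfactant, were applied either as a preemergence directed soil spray on seeded soil or postemergence to one- to two-leaf plants 2 to 10 cm tall.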
# [6] = tested on: ragweed (common ragweed, Ambrosia elatior); assay: Test A preemergence; settings: Ambrosia artemisiifolia, pre-emergence, 240 h; for pest or weed control at 125 g/ha: 125 g ai/ha, Preemergence, visual injury rating after approximately 10 d, read-out: Ragweed plant response rating (0 to 100 scale, 0 is no effect, 100 is complete control); for pest or weed control at 500 g/ha: 500 g ai/ha, preemergence, visual injury rating about 10 d after treatment, 0 to 100 scale (0 no effect, 100 complete control), read-out: Ragweed plant response rating
# In short: as §2
# [7] = tested on: giant foxtail (Setaria faberii); assay: Test A preemergence; settings: Setaria faberi, pre-emergence, 240 h; for pest or weed control at 125 g/ha: 125 g ai/ha, Preemergence, visual injury rating after approximately 10 d, read-out: Foxtail, Giant plant response rating (0 to 100 scale, 0 is no effect, 100 is complete control); for pest or weed control at 500 g/ha: 500 g ai/ha, preemergence, visual injury rating about 10 d after treatment, 0 to 100 scale (0 no effect, 100 complete control), read-out: Foxtail, Giant plant response rating
# In short: as §2
# [8] = tested on: ryegrass, Italian (Italian ryegrass, Lolium multiflorum); assay: Test A preemergence; settings: Lolium multiflorum, pre-emergence, 240 h; for pest or weed control at 125 g/ha: 125 g ai/ha, Preemergence, visual injury rating after approximately 10 d, read-out: Ryegrass, Italian plant response rating (0 to 100 scale, 0 is no effect, 100 is complete control); for pest or weed control at 500 g/ha: 500 g ai/ha, preemergence, visual injury rating about 10 d after treatment, 0 to 100 scale (0 no effect, 100 complete control), read-out: Ryegrass, Italian plant response rating
# In short: as §2
# [9] = tested on: Kochia (Kochia scoparia); assay: Test A preemergence; settings: Bassia scoparia, pre-emergence, 240 h; for pest or weed control at 125 g/ha: 125 g ai/ha, Preemergence, visual injury rating after approximately 10 d, read-out: Kochia plant response rating (0 to 100 scale, 0 is no effect, 100 is complete control); for pest or weed control at 500 g/ha: 500 g ai/ha, preemergence, visual injury rating about 10 d after treatment, 0 to 100 scale (0 no effect, 100 complete control), read-out: Kochia plant response rating
# In short: as §2
# [10] = tested on: pigweed (Amaranthus retroflexus); assay: Test A preemergence; settings: Amaranthus retroflexus, pre-emergence, 240 h; for pest or weed control at 125 g/ha: 125 g ai/ha, Preemergence, visual injury rating after approximately 10 d, read-out: Pigweed plant response rating (0 to 100 scale, 0 is no effect, 100 is complete control); for pest or weed control at 500 g/ha: 500 g ai/ha, preemergence, visual injury rating about 10 d after treatment, 0 to 100 scale (0 no effect, 100 complete control), read-out: Pigweed plant response rating
# [11] = tested on: barnyardgrass (Echinochloa crus-galli); assay: Test A postemergence; settings: Echinochloa crus-galli, post-emergence, 240 h, 125 g ai/ha, Postemergence; visual injury after approximately 10 d; 0 to 100 scale where 0 is no effect and 100 is complete control; read-out: Plant response rating, Barnyardgrass
# In short: as §2
# [12] = tested on: ragweed (common ragweed, Ambrosia elatior); assay: Test A postemergence; settings: Ambrosia artemisiifolia, post-emergence, 240 h, 125 g ai/ha, Postemergence; visual injury after approximately 10 d; 0 to 100 scale where 0 is no effect and 100 is complete control; read-out: Plant response rating, Ragweed
# In short: as §2
# [13] = tested on: giant foxtail (Setaria faberii); assay: Test A postemergence; settings: Setaria faberi, post-emergence, 240 h, 125 g ai/ha, Postemergence; visual injury after approximately 10 d; 0 to 100 scale where 0 is no effect and 100 is complete control; read-out: Plant response rating, Foxtail, Giant
# In short: as §2
# [14] = tested on: ryegrass, Italian (Italian ryegrass, Lolium multiflorum); assay: Test A postemergence; settings: Lolium multiflorum, post-emergence, 240 h, 125 g ai/ha, Postemergence; visual injury after approximately 10 d; 0 to 100 scale where 0 is no effect and 100 is complete control; read-out: Plant response rating, Ryegrass, Italian
# In short: as §2
# [15] = tested on: wheat (Triticum aestivum); assay: Test A postemergence; settings: Triticum aestivum, post-emergence, 240 h, 125 g ai/ha, Postemergence; visual injury after approximately 10 d; 0 to 100 scale where 0 is no effect and 100 is complete control; read-out: Plant response rating, Wheat
# In short: as §2
# [16] = tested on: blackgrass (Alopecurus myosuroides); assay: Test A postemergence; settings: Alopecurus myosuroides, post-emergence, 240 h, 125 g ai/ha, Postemergence; visual injury after approximately 10 d; 0 to 100 scale where 0 is no effect and 100 is complete control; read-out: Plant response rating, Blackgrass
# In short: as §2
# [17] = tested on: corn (Zea mays); assay: Test A postemergence; settings: Zea mays, post-emergence, 240 h, 125 g ai/ha, Postemergence; visual injury after approximately 10 d; 0 to 100 scale where 0 is no effect and 100 is complete control
# In short: as §2
# [18] = tested on: Galium (catchweed bedstraw, Galium aparine); assay: Test A postemergence; settings: Galium, post-emergence, 240 h, 125 g ai/ha, Postemergence; visual injury after approximately 10 d; 0 to 100 scale where 0 is no effect and 100 is complete control; read-out: Plant response rating, Galium
# In short: as §2
# [19] = tested on: Kochia (Kochia scoparia); assay: Test A postemergence; settings: Bassia scoparia, post-emergence, 240 h, 125 g ai/ha, Postemergence; visual injury after approximately 10 d; 0 to 100 scale where 0 is no effect and 100 is complete control; read-out: Plant response rating, Kochia
# In short: as §2
# [20] = tested on: pigweed (Amaranthus retroflexus); assay: Test A postemergence; settings: Amaranthus retroflexus, post-emergence, 240 h, 125 g ai/ha, Postemergence; visual injury after approximately 10 d; 0 to 100 scale where 0 is no effect and 100 is complete control; read-out: Plant response rating, Pigweed
# In short: as §2
smiles,measurement,setting,value
O=C(Nc1ccccc1F)[C@H]1C(=S)NC[C@@H]1c1ccc(Cl)cc1 (racemic) [Compound 947],pest or weed control at 250 g/ha,[1],0%
same,pest or weed control at 250 g/ha,[2],0%
same,pest or weed control at 250 g/ha,[3],0%
same,pest or weed control at 250 g/ha,[4],65%
same,pest or weed control at 125 g/ha,[5],30%
same,pest or weed control at 500 g/ha,[5],60%
same,pest or weed control at 125 g/ha,[6],0%
same,pest or weed control at 500 g/ha,[6],0%
same,pest or weed control at 125 g/ha,[7],50%
same,pest or weed control at 500 g/ha,[7],80%
same,pest or weed control at 125 g/ha,[8],0%
same,pest or weed control at 500 g/ha,[8],0%
same,pest or weed control at 125 g/ha,[9],0%
same,pest or weed control at 500 g/ha,[9],40%
same,pest or weed control at 125 g/ha,[10],0%
same,pest or weed control at 500 g/ha,[10],0%
same,pest or weed control at 125 g/ha,[11],20%
same,pest or weed control at 125 g/ha,[12],0%
same,pest or weed control at 125 g/ha,[13],30%
same,pest or weed control at 125 g/ha,[14],0%
same,plant injury at 125 g/ha,[15],0%
same,pest or weed control at 125 g/ha,[16],0%
same,"Corn plant response rating (crop injury, 0 = no effect, 100 = complete kill) at 125 g/ha",[17],0%
same,pest or weed control at 125 g/ha,[18],0%
same,pest or weed control at 125 g/ha,[19],0%
same,pest or weed control at 125 g/ha,[20],0%
CSc1ccccc1NC(=O)[C@H]1C(=O)N(C)C[C@@H]1c1ccc(C)c(F)c1 [Compound 983],pest or weed control at 250 g/ha,[1],30%
same,pest or weed control at 250 g/ha,[2],0%
same,pest or weed control at 250 g/ha,[3],0%
same,pest or weed control at 250 g/ha,[4],100%
same,pest or weed control at 125 g/ha,[5],90%
same,pest or weed control at 500 g/ha,[5],100%
same,pest or weed control at 125 g/ha,[6],70%
same,pest or weed control at 500 g/ha,[6],100%
same,pest or weed control at 125 g/ha,[7],100%
same,pest or weed control at 500 g/ha,[7],100%
same,pest or weed control at 125 g/ha,[8],30%
same,pest or weed control at 500 g/ha,[8],60%
same,pest or weed control at 125 g/ha,[9],90%
same,pest or weed control at 500 g/ha,[9],90%
same,pest or weed control at 125 g/ha,[10],0%
same,pest or weed control at 500 g/ha,[10],40%
same,pest or weed control at 125 g/ha,[12],0%
same,pest or weed control at 125 g/ha,[13],90%
same,pest or weed control at 125 g/ha,[14],20%
same,plant injury at 125 g/ha,[15],30%
same,pest or weed control at 125 g/ha,[16],30%
same,"Corn plant response rating (crop injury, 0 = no effect, 100 = complete kill) at 125 g/ha",[17],20%
same,pest or weed control at 125 g/ha,[18],30%
same,pest or weed control at 125 g/ha,[19],50%
same,pest or weed control at 125 g/ha,[20],0%
